The source of these data is patent US20040096456A1, “Method to treat hemophilia” (priority 2003, published 2004).

For one test, the system named is CD4^+ blood lymphocytes. Put plainly: 5 day proliferation assay of CD4+ blood lymphocytes with individual A3 and C2 peptides. As to conditions: for individual A3 peptides recognized by both patients (FIG. 4): hemophilia A patients with inhibitors # 5 and # 8, peptide 2 μg. The test is classed as cell-based, human. The source says: Subiects. Six HIV negative severe hemophilia A patients (3 with inhibitors and 3 without), 4 acquired hemophilia patients (Table 4) and 6 healthy subjects (3 men and 3 women, 34-48 years old) were studied. The acquired hemophilia patients had not received fVIII during the period of time when we studied their CD4^+ response to the fVIII peptides. Among hemophilia A patients, patient #8 had received immune tolerance therapy with high doses of fVIII. The last high dose of fVIII administered as part of the immune tolerance therapy was given approximately 8 months before the first experiment reported here. […] Patient #9 received a prophylactic regimen of weekly injections of standard therapeutic doses of fVIII. All other patients were self treated on an as needed basis. In several hemophilic and healthy subjects we tested the response of CD4^+ blood lymphocytes to fVIII peptides on more than one occasion, at intervals that ranged from a few weeks to several months.
Peripheral blood mononuclear cells (PBMC) were isolated from venous blood and depleted them of CD8^+ T cells (Manfredi et al., 1993), using anti-human CD8 antibody (OKT8; Ortho Diagnostic Systems, Raritan, N.J. or Ancell, Bayport, Minn.) and paramagnetic beads coated with goat anti-mouse IgG antibody (PerSeptive Biosystems, Framingham, Mass.). The CD8^+ depleted PBMC (CD4^+ blood lymphocytes) were used for 5 day proliferation assays (Manfredi et al., […]), using sextuplet wells (2×10^5 cells/well; when cell yield was low, a minimum of 1×10^5 cells/well) and the following stimulants: phytohemagglutinin (Sigma; 10 μg/mL), T cell growth factor (Lymphocult; Biotest Diagnostic Corp., Danville, NJ; final concentration of interleukin 2, 10 U/mL), recombinant human fVIII (Baxter, Glendale, Calif. or Bayer, Elkhart, Ind.; 0.5-1 units/mL; normal plasma concentration: I unit/mL), and the synthetic fVIII peptides, both individually and in pools as described above (final concentration 2 μg/mL of each peptide). Sextuplet wells cultured without any stimulus provided the basal proliferation rate of the cells. We measured cell proliferation from the incorporation of ^3H-thymidine (1 μCi per well, specific activity 6.7 Ci/mmol; Dupont-NEN, Boston, Mass.), expressed as counts per minute (cpm). When an antigen induced a statistically significant (p<0.05) increase in proliferation (assessed using a two-tailed Student's t test), we calculated the stimulation index (SI: ratio between average cpm of cultures in the presence of the antigen and average basal proliferation of the same cells). The use of SI normalizes results, and allows comparison of experiments carried out at different times, and with different subjects.

In another test the test system is CD4^+ splenocytes. Kind of test: Proliferation assay of CD4+ splenocytes from hemophilia A mice exposed to human fVIII. In kind it is cell-based, mouse. The settings on record: for proliferative response, ^3H-thymidine incorporation (FIG. 2): CD4^+ splenocytes from hemophilia A mice immunized with human fVIII, representative experiment; for proliferative response of pooled CD4^+ splenocytes: hemophilia A mice immunized by multiple subcutaneous injections of 5-10 μg recombinant human fVIII in Freund's adjuvant, four independent groups. Here is the method: Mice were treated up to 10 times intravenously with 1 μg of purified recombinant human fVIII. CD8^+ depleted spleen cells (so as to leave only CD4^+ T cells; hereafter referred to as “CD4^+ splenocytes”) were used in proliferation assays to test the response to increasing concentrations of fVIII (5-20 nM) and to pools of overlapping synthetic peptides, spanning the sequence of the individual the fVIII domains (fVIII domain pools). Also, the cytokines secreted by CD4^+ splenocytes, after challenge in vitro with fVIII, were determined. The anti-fVIII antibody was measured in the sera as well as their IgG subclass (by ELISA). The inhibitors were measured by the Bethesda assay (Kasper et al., 1975).
Epitope Repertoire on Human fVIII Recognized be CD4^+ Cells from Hemophilia A Mice. The epitope repertoire of the CD4^+ cells sensitized to human fVIII in hemophilia A mice was examined. Mice were immunized by multiple subcutaneous injections of 5-10 μg recombinant human fVIII, emulsified in Freund's adjuvant. This ensured a stronger sensitization of the CD4^+ cells than that obtained after intravenous administration of fVIII. The use of CD4+ splenocytes from mice strongly sensitized to fVIII increases the chances of identifying a comprehensive CD4^+ repertoire, because the CD4^+ cells recognizing individual epitopes on an antigen are scarce among unselected CD4^+ splenocytes.
Four independent groups of 2 to 4 hemophilia A mice were immunized. For each group their CD4^+ splenocytes were pooled, and tested for their proliferative response to fVIII, and to the individual synthetic peptides spanning the sequence of human fVIII. Because of the large number of peptides, all the peptides were tested only in one experiment. In two experiments, peptides spanning the A and C domains were tested. In a fourth experiment, only peptides spanning the Al domain were tested.
On the technique in general: Uptake of a labelled nucleoside into DNA is a usual measure of proliferation.

Setting [1] is: healthy subject #8, second experiment.

“IAAVERLWDYGMSSSPHVLR (listed as Homo sapiens) [peptide 1701-1720]”: the “recognition by CD4^+ cells” value is given as “recognized strongly” in the test with CD4^+ blood lymphocytes (setting [1]); “recognized” with CD4^+ blood lymphocytes (patient #2, another experiment); “recognized” with CD4^+ blood lymphocytes (patient #8, another experiment). Besides, the “proliferative response, ^3H-thymidine incorporation (FIG. 2)” value (“proliferative response … (FIG. 2)” for short) with CD4^+ splenocytes was “recognized”. Moreover, in the test with CD4^+ splenocytes, the “proliferative response of pooled CD4^+ splenocytes” value was “recognized clearly and consistently in all or most experiments”.

“peptide 71-90: 20-residue synthetic peptide, residues 71-90 of the A1 domain of human fVIII (LLGPTIQAEVYDTVVITLKN; UniProt P00451 90-109, looked up, fragment)”: the “proliferative response of pooled CD4^+ splenocytes” value in the test with CD4^+ splenocytes was “recognized clearly and consistently in all or most experiments”.

Take “CLIGEHLHAGMSTLFLVYSN (listed as Homo sapiens) [2001-2020]”: the “A3 peptides that elicited the strongest response of CD4^+ lymphocytes” value with CD4^+ blood lymphocytes (Hemophilia A without Inhibitors, Patient 9, t = 1) is 2001-2020.

On to “DLNSCSMPLGMESKAISDAQ (listed as Homo sapiens) [peptide 2171-2190]”, for which the “recognition by CD4^+ cells” value with CD4^+ blood lymphocytes (patient # 8, hemophilia A with inhibitors, C2 peptides) is “recognized”.

On to “VEMKKEDFDIYDEDENQSPR (listed as Homo sapiens) [1671-1690]”, for which, in the test with CD4^+ blood lymphocytes (patient #8, another experiment), the “recognition by CD4^+ cells” value is “recognized”.

With “FATWSPSKARLHLQGRSNAW (listed as Homo sapiens) [peptide 2201-2220]”, in the test with CD4^+ splenocytes, the “proliferative response … (FIG. 2)” value is recorded as “recognized”; the “proliferative response of pooled CD4^+ splenocytes” value is “recognized clearly and consistently in all or most experiments”.

In the case of “FTPVVNSLDPPLLTRYLRIH (listed as Homo sapiens) [2291-2310]”, in the test with CD4^+ blood lymphocytes (Healthy Subjects, Subject 9, t = 1), the “C2 peptides that elicited the strongest response of CD4^+ lymphocytes” value is given as 2291-2310.

“LHLQGRSNAWRPQVNNPKEW (listed as Homo sapiens) [2211-2230]”: in the test on CD4^+ blood lymphocytes (Hemophilia A without Inhibitors, Patient 9, t = 2), the “C2 peptides that elicited the strongest response of CD4^+ lymphocytes” value was 2211-2230.

Consider “531-550: 20-residue synthetic peptide, residues 531-550 of the A2 domain of human fVIII (RYYSSFVNMERDLASGLIGP; UniProt P00451 550-569, looked up, fragment)”, for which, in the test with CD4^+ splenocytes, the “proliferative response … (FIG. 2)” value was “recognized”.

Turning to “GLIGPLLVCHTNTLNPAHGR (listed as Homo sapiens) [1851-1870]”, the “proliferative response … (FIG. 2)” value in the test on CD4^+ splenocytes is recorded as “recognized”.

With “MESKAISDAQITASSYFTNM (listed as Homo sapiens) [2181-2200]”, the “C2 peptides that elicited the strongest response of CD4^+ lymphocytes” value with CD4^+ blood lymphocytes (Hemophilia A with Inhibitors, Patient 6, t = 1) is reported as 2181-2200.

Take “GMSSSPHVLRNRAQSGSVPQ (listed as Homo sapiens) [1711-1730]”: in the test with CD4^+ blood lymphocytes (healthy subject #2), the “recognition by CD4^+ cells” value was “recognized”.

Consider “2141-2160: 20-residue synthetic peptide, residues 2141-2160 of the C1 domain of human fVIII (NPPIIARYIRLHPTHYSIRS; UniProt P00451 2160-2179, looked up, fragment)”, for which the “proliferative response of pooled CD4^+ splenocytes” value with CD4^+ splenocytes is “recognized clearly and consistently in all or most experiments”.

In the case of “AEPRKNFVKPNETKTYFWKV (listed as Homo sapiens) [1801-1820]”, the “individual A3 peptides recognized by both patients (FIG. 4)” value with CD4^+ blood lymphocytes is “recognized also by patient # 8”.

As for “YDEDENQSPRSFQKKTRHYF (listed as Homo sapiens) [1681-1700]”, the “recognition by CD4^+ cells” value with CD4^+ blood lymphocytes (setting [1]) was “recognized strongly”.

On to “peptide 601-620: 20-residue synthetic peptide, residues 601-620 of the A2 domain of human fVIII (VQLEDPEFQASNIMHSINGY; UniProt P00451 620-639, looked up, fragment)”, for which, in the test with CD4^+ splenocytes, the “proliferative response … (FIG. 2)” value is “recognized”; the “proliferative response of pooled CD4^+ splenocytes” value was “recognized clearly and consistently in all or most experiments”.

As to “peptide 2131-2150: 20-residue synthetic peptide, residues 2131-2150 of the C1 domain of human fVIII (DSSGIKHNIFNPPIIARYIR; UniProt P00451 2150-2169, looked up, fragment)”, in the test with CD4^+ splenocytes, the “proliferative response … (FIG. 2)” value is “recognized”; the “proliferative response of pooled CD4^+ splenocytes” value was “recognized clearly and consistently in all or most experiments”.

In the case of “FDCKAWAYFSDVDLEKDVHS (listed as Homo sapiens) [1831-1850]”, the “A3 peptides that elicited the strongest response of CD4^+ lymphocytes” value in the test on CD4^+ blood lymphocytes (Acquired Hemophilia, Patient 1, t = 2) was 1831-1850. Further, the “recognition by CD4^+ cells” value in the test with CD4^+ blood lymphocytes (patients #1 and #2 (acquired hemophilia), in some experiments) was “recognized”.

Regarding “521-540: 20-residue synthetic peptide, residues 521-540 of the A2 domain of human fVIII (PTKSDPRCLTRYYSSFVNME; UniProt P00451 540-559, looked up, fragment)”, the “proliferative response … (FIG. 2)” value in the test with CD4^+ splenocytes is given as “recognized”.

On to “SFQKKTRHYFIAAVERLWDY (listed as Homo sapiens) [peptide 1691-1710]”, for which the “experiments in which the peptide (or one or more peptides of the sequence region) was recognized” value with CD4^+ blood lymphocytes (8 experiments done with CD4^+ cells from healthy subjects) is 7 of the 8. The “number of acquired hemophilia patients who recognized the peptide or region” value in the test with CD4^+ blood lymphocytes (acquired hemophilia patients, not consistent between experiments of the same patient) is 1. For the same substance, the “recognition by CD4^+ cells” value with CD4^+ blood lymphocytes (healthy subject #2) is recorded as “did not recognize”; in the test on CD4^+ blood lymphocytes (patient #8, one experiment), “recognized”. Further, the “number of hemophilia A patients who strongly recognized the peptide” value with CD4^+ blood lymphocytes (hemophilia A patients with inhibitors) is recorded as 2; in the test on CD4^+ blood lymphocytes (hemophilia A patients without inhibitors) it was 1; with CD4^+ blood lymphocytes (hemophilia A patients, in only one of the experiments of the same patient), 3.

For the substance “NENIHSIHFSGHVFTVRKKE (listed as Homo sapiens) [1951-1970]”, the “individual A3 peptides recognized by both patients (FIG. 4)” value in the test on CD4^+ blood lymphocytes is “recognized also by patient # 8”.
